Earlier results on three compounds are cited in patent US20030118652A1 (priority 2001, published 2003).

For data set [1] the following is noted: (R)- versus (S)-bisoprolol.
In data set [2] the target is cytochrome P450 isoform CYP2D6 (Homo sapiens, UniProt P10635). The following applies: (R)- versus (S)-bisoprolol; stated as 'it is believed'.
The conditions of data set [3]: following administration of racemic bisoprolol; (S)- versus (R)-bisoprolol.

Sequence of cytochrome P450 isoform CYP2D6 (P10635 whole entry, canonical isoform): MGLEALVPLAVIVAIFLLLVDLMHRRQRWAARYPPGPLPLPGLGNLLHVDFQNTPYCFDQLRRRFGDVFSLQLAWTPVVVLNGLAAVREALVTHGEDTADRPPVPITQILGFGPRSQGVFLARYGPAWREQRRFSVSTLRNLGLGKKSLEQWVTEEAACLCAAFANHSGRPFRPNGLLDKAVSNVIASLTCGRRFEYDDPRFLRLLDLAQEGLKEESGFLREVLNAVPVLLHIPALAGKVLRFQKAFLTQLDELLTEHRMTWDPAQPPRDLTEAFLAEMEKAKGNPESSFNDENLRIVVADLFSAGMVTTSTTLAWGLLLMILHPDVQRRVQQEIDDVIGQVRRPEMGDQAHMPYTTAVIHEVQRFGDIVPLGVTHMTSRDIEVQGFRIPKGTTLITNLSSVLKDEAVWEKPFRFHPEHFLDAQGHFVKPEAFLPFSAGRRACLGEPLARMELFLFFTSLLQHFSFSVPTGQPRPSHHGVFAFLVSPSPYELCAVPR

Turning to `CC(C)NCC(O)COc1ccc(COCCOC(C)C)cc1` (racemic) [racemic bisoprolol, 1-[4-[[2-(1-methylethoxy)ethoxy]-methyl]phenoxy]-3-[(1-methylethyl)amino]-2-propanol], the “side effects on the peripheral circulation” value (Bailliart et al. 1987) is recorded as “adverse side effects on the peripheral circulation”. In addition, the bronchoconstrictor side effects result (Dorow et al. 1986) is “bronchoconstrictor effects, including wheeziness and breathlessness”. Also, the “effects on carbohydrate metabolism” value (Janka et al. 1986, patients with diabetes) was “effects on carbohydrate metabolism that are deleterious to patients with diabetes”.
On to `CC(C)NC[C@@H](O)COc1ccc(COCCOC(C)C)cc1` [(R)-bisoprolol], for which the “rate of renal clearance” value in data set [1] is recorded as “greater”. Further, in data set [2], the “rate of oxidative metabolism by CYP2D6” value was “greater rate”.
Consider `CC(C)NC[C@H](O)COc1ccc(COCCOC(C)C)cc1` [(S)-bisoprolol], for which the elimination half-life result in data set [3] is “slightly higher”.
